Measured values taken from article PMC9721052, “AHL-Priming Protein 1 mediates N-3-oxo-tetradecanoyl-homoserine lactone priming in Arabidopsis” (BMC Biology, 2022).

Target: T1, ALI1 (AHL-Priming Protein 1; AtGlcAK2, formerly AtGALK2) (Arabidopsis thaliana, UniProt Q9LY82)
T1 construct: gene GLCAK2; full ORF amplified from Col-0 cDNA, pDEST17, N-terminal 6xHis kept, expressed in E. coli BL21, Ni-NTA purified; GST-ALI1 also made for the biosensor assay
T1 sequence (Q9LY82 1-366): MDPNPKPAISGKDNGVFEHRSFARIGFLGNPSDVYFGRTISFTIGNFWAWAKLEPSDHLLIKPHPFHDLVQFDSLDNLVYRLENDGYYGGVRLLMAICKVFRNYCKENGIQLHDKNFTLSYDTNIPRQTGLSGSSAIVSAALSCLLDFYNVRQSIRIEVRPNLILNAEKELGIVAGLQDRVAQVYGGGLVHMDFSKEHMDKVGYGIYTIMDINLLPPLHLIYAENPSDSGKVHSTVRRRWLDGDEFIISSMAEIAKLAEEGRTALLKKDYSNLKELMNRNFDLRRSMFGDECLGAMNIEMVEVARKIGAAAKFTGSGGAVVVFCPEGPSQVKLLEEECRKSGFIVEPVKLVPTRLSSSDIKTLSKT
Assay: sequestration of free ligand read by biosensor E. coli LuxCDABE luminescence
Assay type: binding
Conditions: 6 nmol protein, 0-18 nmol ligand, overnight; indirect assay, MST and nanoDSF by the same authors did not confirm

## CCCCCCCCCCCC(=O)CC(=O)N[C@H]1CCOC1=O [oxo-C14-HSL]
  sequestration of free ligand read by biosensor E. coli LuxCDABE luminescence: equivalently able to sequestrate oxo-C14-HSL molecule from the solution
